Measurements as given in ChEMBL document CHEMBL1158055, “Grandisines C-G, indolizidine alkaloids from the Australian rainforest tree Elaeocarpus grandis” (J Nat Prod, 2006).

biological target: Delta-type opioid receptor (Homo sapiens, UniProt P41143); assay: Displacement of [125I]deltorphin 2 from human recombinant delta opioid receptor expressed in HEK293 cells; assay type: cell-based
Sequence (P41143 whole entry): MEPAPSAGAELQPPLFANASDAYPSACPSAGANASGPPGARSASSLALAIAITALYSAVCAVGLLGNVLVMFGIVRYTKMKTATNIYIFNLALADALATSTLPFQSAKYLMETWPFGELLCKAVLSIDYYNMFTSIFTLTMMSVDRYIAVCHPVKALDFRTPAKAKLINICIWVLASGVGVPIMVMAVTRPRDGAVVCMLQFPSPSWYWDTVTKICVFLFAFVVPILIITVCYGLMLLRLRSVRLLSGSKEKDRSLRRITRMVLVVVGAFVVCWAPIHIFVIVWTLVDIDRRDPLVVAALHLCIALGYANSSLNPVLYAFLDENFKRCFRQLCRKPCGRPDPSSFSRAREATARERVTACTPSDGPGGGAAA

SMILES	IC50 [µM]
C[C@H]1CC=CC2=C1C(=O)[C@@H]1[C@@H](CCN3CCC[C@@H]13)O2	9.9
C[C@H]1CC=CC(=O)[C@@H]1C(=O)C1=CCCN2CCC[C@@H]12 [GRANDISINE D]	1.65

The remaining lines, values ahead:

IC50 [µM]	SMILES
14.6	C[C@H]1C[C@H](O)CC2=C1C(=O)[C@@H]1[C@@H](CCN3CCC[C@@H]13)O2 [GRANDISINE C]
1.55	C[C@H]1C[C@H](N)CC2=C1C(=O)[C@@H]1[C@@H](CCN3CCC[C@@H]13)O2 [GRANDISINE F]
75.4	COC(=O)C[C@@H]1C[C@H](C)CC(C2=CCCN3CCCC23)=N1 (stereo not given in full) [GRANDISINE G]
